Measured values reported in publication PMC3138742 (PLoS ONE, 2011).

Columns and labels:
[1] = system: EGFR phosphorylation in NIH3T3-EGFR T790M/L858R cells; assay: Western blot of EGFR phosphorylation; format: cell-based; settings: 6 h, immunoblotting
Method: Cell viability was determined using sulforhodamine B assay. IC50 values were determined based on the results of three independent experiments. […] Whole-cell lysates were assayed for total EGFR and phosphorylation of EGFR by immunoblotting. […] Cell viability was determined using sulforhodamine B assay.

SK-OV-3 xenograft = assay: Human tumor xenograft model, tumor growth; format: in vivo; settings: nude mice, p.o. twice daily
Method: (§1) The mice were housed and maintained under specific-pathogen free (SPF) conditions. All animal procedures were performed according to the protocol approved by the Institutional Animal Care and Use Committee at Shanghai Institute of Materia Medica, Chinese Academy of Sciences (SIMM-AE-DJ-2010-01). Under sterile conditions, well-developed tumors were cut into 1-mm^3 fragments and transplanted s.c. into the right flank of nude mice using a trocar. When the tumor reached a volume reached 100 to 200 mm^3, the mice were randomly assigned into control and treatment groups. […] The sizes of the tumors were measured twice per week using microcalipers. The tumor volume (V) was calculated as follows: V = (length×width^2)/2. The body weights of the mice were observed simultaneously.

Calu-3 xenograft = assay: Human tumor xenograft model, tumor growth; format: in vivo; settings: nude mice, p.o. twice daily
Method: as §1

ErbB2 = ErbB2 (Homo sapiens, UniProt P04626); assay: Rapid dilution irreversibility experiment; format: biochemical; set-up: The kinase domain of EGFR, ErbB-2, IGF1R, VEGFR2, FGFR1, PDGFRα, c-Src, c-Met, RON, c-Kit, EphA2 and EphB2 were expressed; made in house; settings: preincubated 30 min at 100-fold IC50, diluted 100-fold, sampled 180 minutes
ErbB2, sequence (P04626 720-987 limits assumed): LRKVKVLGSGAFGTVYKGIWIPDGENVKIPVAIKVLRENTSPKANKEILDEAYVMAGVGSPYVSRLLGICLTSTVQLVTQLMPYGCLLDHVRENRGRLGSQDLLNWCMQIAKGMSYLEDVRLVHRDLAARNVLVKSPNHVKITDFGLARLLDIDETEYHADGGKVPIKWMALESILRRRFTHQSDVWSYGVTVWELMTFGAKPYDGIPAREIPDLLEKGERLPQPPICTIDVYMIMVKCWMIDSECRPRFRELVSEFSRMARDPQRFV
Method: The microplate was placed in the EZ Reader (Caliper Life Sciences, MA) and wells were repeatedly sampled for 180 minutes.
To verify this, we determined the reversibility of EGFR and ErbB2 binding using a dilution method. […] After incubating, the enzyme/inhibitor mixture is diluted 100-fold (i.e., to normal reaction conditions), reaction buffer plus ATP and substrate are added, and receptor kinase activity is measured continuously. In general, a reversible inhibitor dissociates quickly, allowing immediate recovery of enzymatic activity, whereas a slowly reversible inhibitor allows a gradual increase in activity. In contrast, an irreversible inhibitor prevents recovery of enzymatic activity.

- recovery of ErbB2 enzymatic activity after dilution (ErbB2): slow recovery of the enzymatic activity
Structure (SMILES): CS(=O)(=O)CCNCc1ccc(-c2ccc3ncnc(Nc4ccc(OCc5cccc(F)c5)c(Cl)c4)c3c2)o1 [lapatinib, reference compound]
- inhibition of EGFR phosphorylation [1]: much weaker inhibitory effect
- tumor growth (SK-OV-3 xenograft): exhibited antitumor activity
- tumor growth (Calu-3 xenograft): exhibited antitumor activity
